Source: patent US4661484A, “Pyridazinone derivatives and salts thereof as cardiac stimulants” (Mitsubishi Chemical Industries Limited, priority 1984, dated 1987)

How the values were obtained:
papillary muscle of dog = experiment: Effect on contraction of an isolated and cross-circulated papillary muscle preparation of the dog; conditions: Canis lupus familiaris; dosage 30 μg i.a.; read-out: Contraction of papillary muscle of dog, increase
Method: 1. Effect on contraction of an isolated and cross-circulated papillary muscle preparation of the dog
An isolated and cross-circulated papillary muscle preparation of the dog was prepared by Endo and Hashimoto's method (referred to American Journal of Physiology, 218, 1459-1463, 1970). The effect of the compound was measured by closely intraarterially injecting the compound dissolved in a solvent to the papillary muscle for the purpose of recording its effect on contraction of papillary muscle.

[1] = system: left atrium of the guinea pig; experiment: Effect on contraction of an isolated left atrium of the guinea pig; conditions: Cavia porcellus; dosage 10^-5 g/ml; read-out: Contraction of left atrium of guinea pig, increase
Method: 2. Effect on contraction of an isolated left atrium of the guinea pig
A left atrium was isolated from a male guinea pig with 200-300 g of body weight soon after striking on the back of its head. The mitral orifice was fixed to the bottom of an organ bath filled with 30 ml of Krebs-Henseleit solution maintained at 35° C. A gas mixture comprising 95% of O2 and 5% of CO2 was passed through the Krebs-Henseleit solution in the organ bath. Isometric tension was measured by connecting a left auricle of heart and a transducer by a yarn. A resting tension of 0.5 g was given to the atrium, which was then electrically driven with square pulses with duration of 1 msec and voltage of 1.5 times as much as threshold in the rate of 2 Hz via dipolar platinum electrodes.
After stabilizing the atrium for 30 minutes from its preparation, the compound dissolved in a solvent was added to the organ bath to measure its effect.

[2] = system: myocardial contraction in anesthetized dogs; experiment: Effects on myocardial contraction in anesthetized dogs; assay type: in vivo; conditions: anesthetized dog
Method: 3. Effects on myocardial contraction in anesthetized dogs
Male and female mongrel dogs with body weight of 8-15 kg were used. A dog was anesthetized by intraveneous injection of 30 mg/kg of sodium pentobarbital and practiced artificial respiration. The dog was thoractomized between fourth and fifth costa which was cut off. The pericardium was incised to expose heart. Blood flow through the aorta, which was measured with an electromagnetic blood flowmeter whose probe was attached to the ascending aorta, was used as an approximate index of cardiac output (CO). Left ventricular pressure (LVP) was measured with a Miller Catheter-tip pressure transducer and the first derivative of the LVP (dP/dt) was measured with a differentiater. Contraction of right ventricular muscle (Cont) was determined with a strain-gauge attached to the wall. Systemic blood pressure was measured from the left femoral artery. Heart rate was measured with electrocardiogram (lead II) and a cardiotachometer. The compound dissolved in a solvent was administered intravenously from a left femoral vein.

[3] = Acute toxicity (LD50), intravenous, male mice; conditions: mouse, in vivo, i.v.
Method: Acute toxicity (LD50) for intravenous administration in male mice was determined by the method of […] and Wilcoxon (referred to Journal of Pharmacology and Experimental Therapeutics, 96, 99-113, 1949).

For `O=c1ccc(-c2ccc(Nc3ccncc3)cc2)n[nH]1` [Example I, 6-[4-(4'-pyridyl)aminophenyl]-3(2H)-pyridazinone], the activation at 0.03 mg (papillary muscle of dog) was 12.4%, the activation at 10 µg/mL [1] was 163% and the “CO increase (cardiac output)” value ([2]; 30 μg/kg i.v.) was 13%. The “Cont increase (contraction of right ventricular muscle)” value ([2]; 30 μg/kg i.v.) was 31%, the dP/dt max increase ([2]; 30 μg/kg i.v.) was 64% and the “CO increase (cardiac output)” value ([2]; 100 μg/kg i.v.) was 11%. For the same molecule, the “Cont increase (contraction of right ventricular muscle)” value ([2]; 100 μg/kg i.v.) was 39%, the dP/dt max increase ([2]; 100 μg/kg i.v.) was 108% and the LD50 [3] was 103 mg/kg.
